{
  "source": "patent US20240226100A1",
  "about": "“CONTROL OF PROTEIN EXPRESSION WITH TMP-PROTAC COMPOUNDS” (THE TRUSTEES OF THE UNIVERSITY OF PENNSYLVANIA, priority 2021, published 2024)",
  "key": {"eDHFR-YFP [1]": {"tested_on": "eDHFR-YFP", "experiment": "Washout experiment, eDHFR-YFP recovery in HEK293T eDHFR-YFP+ cells, Western blot", "assay_type": "cell-based, Escherichia coli", "settings": "100 nM 7c, washed twice with PBS", "procedure": "HEK293T^eDHFR-YFP+ cells were seeded in a clear (Falcon) 12-well plate (3×10^5 cells/well) in complete media. The next day, cells were incubated with 100 nM 7c for 24 h in complete media. Media was removed by vacuum, cells were gently washed with 1 mL PBS 2×, then cell media was replenished. Next, cells were isolated +0 to 24 h after washing and prepared for Western blot analysis.\nProtein degradation is reversed in as early as 4 h after drug removal from cell media."}, "[2]": {"tested_on": "FAP CAR-eDHFR direct fusion (DF)", "experiment": "Dose response of surface CAR expression in primary human FAP-eDHFR DF CAR T cells, flow cytometry", "assay_type": "cell-based", "settings": "for degradation / downregulation of CAR molecules from the surface of CAR T cells: primary human FAP-eDHFR CAR T cells", "procedure": "Generated CAR T cells were pelleted, resuspended in 2% BSA in PBS (Invitrogen), and incubated with Alexa Fluor® 647 AffiniPure F(ab′2) fragment goat anti-mouse IgG (Jackson ImmunoResearch Laboratories) for 30 minutes at room temperature. Stained cells were washed 3 times with PBS, and were analyzed on a flow cytometer (LSR II, BD Biosciences) for CAR and/or BFP expression. All flow data were analyzed using FlowJo software (FlowJo).\nFollowing incubation, the cells were washed and stained with Alexa Fluor® 647 AffiniPure F(ab′2) fragment goat anti-mouse IgG (Jackson ImmunoResearch Laboratories) as described under “Flow Cytometry”, and their surface expression was analyzed on a flow cytometer (LSR II, BD Biosciences).\nData plotted as raw CAR stain fluorescence is shown in the left panel and percent of maximum CAR expression is shown in the right panel.\nValues are reported as percent of maximum CAR expression (i.e. relative to CAR T cells that were treated with vehicle control). Each color represents a different donor (n=3)."}, "FAP-eDHFR DF CAR T cells": {"tested_on": "FAP-eDHFR DF CAR T cells", "experiment": "In vitro killing assay of FAP-eDHFR DF CAR T cells against I45 huFAP-Luc target cells"}, "eDHFR-Luc": {"tested_on": "eDHFR-Luc", "experiment": "Time course in OVCAR8 eDHFR-Luc cells, luminescence", "assay_type": "cell-based, Escherichia coli", "settings": "between 390 and 24 nM", "procedure": "OVCAR8^eDHR-luc+ cells were plated in black wall/clear bottom (Falcon) 96-well plates (4×10^4 cells/well) in 200 uL of complete media and incubated with serially diluted compound 7c at −48, −24, −12, −8 and −4 h and analyzed together at 0 h (t=0). Luciferin is prepared to 1× with complete media and 50 uL of Luciferin solution is added to the cells which are then analyzed by plate reader (ThermoFisher Varioskan Plusplate).\nAfter the addition of Luciferin/complete media solution, luminescence was measured at the same time (t=0) by plate reader. 90% degradation of eDHFR-luc measured in 12 h between 390 and 24 nM, and 95% degradation of eDHFR-luc measured in 24 h between 390 and 24 nM."}, "eDHFR-YFP [3]": {"tested_on": "eDHFR-YFP", "experiment": "Degradation of YFP in HEK293T-DYL cells, flow cytometry", "assay_type": "cell-based, Escherichia coli", "settings": "72 and 96 h, varying doses", "source_text": "The left panel represents the mean YFP fluorescence and the right panel represents the same data in percent of maximum YFP fluorescence normalized to HEK293T-DYL treated with DMSO."}, "eDHFR-YFP [4]": {"tested_on": "eDHFR-YFP", "experiment": "Time and dose-dependent degradation of YFP in Jurkat-DYL / Jurkat eDHFR-YFP+ cells, flow cytometry", "assay_type": "cell-based, Escherichia coli", "procedure": "Likewise, Jurkat eDHFR-YFP (Jurkat^eDHFR-YFP+) cells are seeded in clear (Falcon) 12-well plates (3×10^5 cells/well) in complete media. […]"}},
  "data": [
    {"smiles": "COc1cc(Cc2cnc(N)nc2N)cc(OC)c1OCCCC(=O)NCCOCCOCCNc1cccc2c1C(=O)N(C1CCC(=O)NC1=O)C2=O", "note": "(centres unmarked) [Compound 7c, 4-(4-((2,4-diaminopyrimidin-5-yl)methyl)-2,6-dimethoxyphenoxy)-N-(2-(2-(2-((2-(2,6-dioxopiperidin-3-yl)-1,3-dioxoisoindolin-4-yl)amino)ethoxy)ethoxy)ethyl)butanamide]", "values": [
      {"measurement": "time after drug removal at which protein degradation is reversed", "setting": "eDHFR-YFP [1]", "value": "≤ 4", "unit": "h"},
      {"measurement": "CAR expression remaining, percent of maximum CAR expression", "setting": "[2]; as early as 4 hours post-incubation, relative to vehicle control", "value": "20 % of maximum CAR expression"},
      {"measurement": "degradation / downregulation of CAR molecules from the surface of CAR T cells", "setting": "[2]", "value": "leads to degradation of CAR molecules from the surface of CAR T cells"},
      {"measurement": "degradation / downregulation of CAR molecules from the surface of CAR T cells", "setting": "[2]; listed as TMP-POM 7c", "value": "effectively downregulates CAR in a dose-dependent and reversible manner"},
      {"measurement": "cytotoxic function of FAP-eDHFR CAR T cells against FAP-expressing target cells", "setting": "FAP-eDHFR DF CAR T cells; CAR T cells pre-incubated 24 h with 100 nM compound, varying E:T ratios", "value": "inhibition of their cytotoxic function"},
      {"measurement": "cytotoxic activity of FAP-eDHFR DF CAR T cells across concentrations", "setting": "FAP-eDHFR DF CAR T cells; pre-incubated overnight at different concentrations, 10:1 E:T", "value": "tunable in a dose-dependent manner"},
      {"measurement": "degradation of eDHFR-luc", "setting": "eDHFR-Luc; 12 h", "value": 90, "unit": "%"},
      {"measurement": "degradation of eDHFR-luc", "setting": "eDHFR-Luc; 24 h", "value": 95, "unit": "%"},
      {"measurement": "degradation of YFP", "setting": "eDHFR-YFP [3]", "value": "degraded"},
      {"measurement": "YFP remaining, % of maximum (no drug control)", "setting": "eDHFR-YFP [4]; Jurkat eDHFR-YFP+, as early as 4 h", "value": "20 % of maximum"},
      {"measurement": "degradation of YFP (eDHFR fusion protein)", "setting": "eDHFR-YFP [4]; Jurkat-DYL, 4, 8 and 18 h incubation, varying doses", "value": "degrade eDHFR fusion proteins to low/no functional expression"}
    ]}
  ]
}
